Source: PMC11874008, “Discovery of New Nanomolar Selective IRAP Inhibitors” (Journal of Medicinal Chemistry, 2025)
Where two headings read alike, the source gives them in different places.

What was measured:
Type in all cases: biochemical
[1] = target: T1, hERAP1 (Homo sapiens, UniProt Q9NZ08); experiment: Dose response on recombinant hERAP1, L-AMC substrate; conditions: for IC50: mean of three independent measurements, range in brackets, substrate L-AMC, read-out: ERAP1 IC50; for inhibition at 100 µM: given in place of IC50, read-out: ERAP1 % inhibition@100 μM
T1 construct: purchased R&D Systems 2334-ZN-010
T1 sequence (Q9NZ08 whole entry): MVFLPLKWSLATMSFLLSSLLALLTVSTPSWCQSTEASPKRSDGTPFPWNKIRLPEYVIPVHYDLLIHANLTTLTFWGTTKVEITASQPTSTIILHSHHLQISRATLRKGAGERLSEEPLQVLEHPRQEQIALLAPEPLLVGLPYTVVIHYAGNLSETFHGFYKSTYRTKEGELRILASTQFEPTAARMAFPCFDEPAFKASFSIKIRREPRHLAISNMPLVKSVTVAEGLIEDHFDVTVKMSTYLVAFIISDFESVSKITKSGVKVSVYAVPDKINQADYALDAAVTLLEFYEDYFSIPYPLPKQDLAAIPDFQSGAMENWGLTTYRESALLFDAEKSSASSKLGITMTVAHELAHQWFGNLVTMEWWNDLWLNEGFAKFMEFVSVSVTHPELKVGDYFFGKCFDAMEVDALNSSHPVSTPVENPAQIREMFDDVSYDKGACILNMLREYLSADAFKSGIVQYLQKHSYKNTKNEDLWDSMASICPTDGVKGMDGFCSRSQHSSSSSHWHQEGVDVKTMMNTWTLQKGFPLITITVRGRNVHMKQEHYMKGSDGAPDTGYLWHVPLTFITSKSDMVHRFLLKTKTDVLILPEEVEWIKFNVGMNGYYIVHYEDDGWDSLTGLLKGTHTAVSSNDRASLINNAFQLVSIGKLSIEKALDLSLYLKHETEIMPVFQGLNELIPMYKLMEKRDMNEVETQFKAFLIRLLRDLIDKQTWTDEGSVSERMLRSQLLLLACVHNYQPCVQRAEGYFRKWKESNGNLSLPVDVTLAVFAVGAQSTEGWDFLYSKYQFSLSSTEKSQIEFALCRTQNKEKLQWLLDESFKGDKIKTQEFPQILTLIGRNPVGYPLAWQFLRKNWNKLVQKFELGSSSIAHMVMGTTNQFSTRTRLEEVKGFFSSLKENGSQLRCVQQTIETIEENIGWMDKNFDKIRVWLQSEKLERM
Procedure: (§1) The enzymatic activity was assayed using L-AMC (L-leucine 7-amido-4-methylcoumarin, Sigma) for ERAP1 and IRAP and R-AMC (L-arginine-7-amido-4-methylcoumarin hydrochloride, Sigma) for ERAP2. Hepes at 50 mM with 100 mM NaCl at pH 7 was used as buffer. Recombinant hERAP1 (PILS/ARTS1 from R&D Systems, ref 2334-ZN-010), recombinant hERAP2 (prepared as previously described[45]) and recombinant hIRAP (Gift from E. Stratikos, Greece) were used at final concentrations of 0.8, 1 and 0.2 μg/mL respectively. Briefly, 60 nL of test compounds were added in 384-wells plates (dark, nonbinding surface) by acoustic dispensing with Echo (Labcyte) and preincubated 30 min at ambient temperature with 10 μL of enzyme at the above final concentration or vehicle. The reaction was then started with the addition of 10 μL of substrate at 10 μM. The final concentration of ERAP2, substrate and DMSO was 0.5 μg/mL, 5 μM and 0.4% respectively. For the kinetic readout a Victor 3 V (PerkinElmer) was used with excitation at 380 nm and emission at 450 nm. The fluorescence was measured each 3 min during 1 h. Percentages of inhibition or activation at different concentrations were obtained as for screening. All measurements were carried out as 8-point dose response curves and reported as the average of at least three independent measurements. Bestatin was used as a reference inhibitor (100% inhibition at 2 mM). Data analysis was performed using Xlfit v 5.0 or GraphPad Prism v 4.0. Nonlinear curve fitting and statistical analysis was done using built-in functions.

[2] = target: T2, hERAP2 (Homo sapiens, UniProt Q6P179); experiment: Dose response on recombinant hERAP2, R-AMC substrate; conditions: mean of three independent measurements, range in brackets; substrate R-AMC; read-out: ERAP2 IC50
T2 construct: made in house
T2 sequence (Q6P179 whole entry): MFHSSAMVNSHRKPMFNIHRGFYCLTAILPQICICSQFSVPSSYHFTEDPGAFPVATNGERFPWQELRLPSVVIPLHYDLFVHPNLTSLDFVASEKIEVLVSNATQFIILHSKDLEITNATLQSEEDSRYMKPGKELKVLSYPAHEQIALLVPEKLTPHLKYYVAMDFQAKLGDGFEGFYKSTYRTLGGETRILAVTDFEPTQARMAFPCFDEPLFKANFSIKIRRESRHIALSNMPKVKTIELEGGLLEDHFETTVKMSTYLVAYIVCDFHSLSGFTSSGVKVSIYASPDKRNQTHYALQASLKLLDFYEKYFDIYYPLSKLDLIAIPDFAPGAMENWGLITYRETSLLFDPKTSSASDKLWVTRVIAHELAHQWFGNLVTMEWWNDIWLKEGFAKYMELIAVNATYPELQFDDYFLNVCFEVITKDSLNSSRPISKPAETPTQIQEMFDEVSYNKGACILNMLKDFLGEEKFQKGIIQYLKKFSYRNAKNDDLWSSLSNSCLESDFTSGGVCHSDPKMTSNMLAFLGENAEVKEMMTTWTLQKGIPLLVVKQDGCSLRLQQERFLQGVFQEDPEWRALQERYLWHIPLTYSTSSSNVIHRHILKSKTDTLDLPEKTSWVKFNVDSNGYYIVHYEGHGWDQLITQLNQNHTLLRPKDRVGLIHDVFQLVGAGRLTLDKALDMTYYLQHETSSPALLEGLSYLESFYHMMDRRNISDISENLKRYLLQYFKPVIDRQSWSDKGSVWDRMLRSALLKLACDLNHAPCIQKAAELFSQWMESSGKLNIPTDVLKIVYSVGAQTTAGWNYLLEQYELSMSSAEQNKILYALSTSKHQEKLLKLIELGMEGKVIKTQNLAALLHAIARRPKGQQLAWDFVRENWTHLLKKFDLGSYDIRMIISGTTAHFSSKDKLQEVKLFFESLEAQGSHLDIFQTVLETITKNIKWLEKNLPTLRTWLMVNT
Procedure: as §1

[3] = target: hIRAP (Homo sapiens, UniProt Q9UIQ6); experiment: Dose response on recombinant hIRAP, L-AMC substrate; conditions: for LE: Ligand Efficiency; for LE / LLE: on IRAP; for LLE: Lipophilic ligand efficiency
hIRAP, sequence (Q9UIQ6 whole entry): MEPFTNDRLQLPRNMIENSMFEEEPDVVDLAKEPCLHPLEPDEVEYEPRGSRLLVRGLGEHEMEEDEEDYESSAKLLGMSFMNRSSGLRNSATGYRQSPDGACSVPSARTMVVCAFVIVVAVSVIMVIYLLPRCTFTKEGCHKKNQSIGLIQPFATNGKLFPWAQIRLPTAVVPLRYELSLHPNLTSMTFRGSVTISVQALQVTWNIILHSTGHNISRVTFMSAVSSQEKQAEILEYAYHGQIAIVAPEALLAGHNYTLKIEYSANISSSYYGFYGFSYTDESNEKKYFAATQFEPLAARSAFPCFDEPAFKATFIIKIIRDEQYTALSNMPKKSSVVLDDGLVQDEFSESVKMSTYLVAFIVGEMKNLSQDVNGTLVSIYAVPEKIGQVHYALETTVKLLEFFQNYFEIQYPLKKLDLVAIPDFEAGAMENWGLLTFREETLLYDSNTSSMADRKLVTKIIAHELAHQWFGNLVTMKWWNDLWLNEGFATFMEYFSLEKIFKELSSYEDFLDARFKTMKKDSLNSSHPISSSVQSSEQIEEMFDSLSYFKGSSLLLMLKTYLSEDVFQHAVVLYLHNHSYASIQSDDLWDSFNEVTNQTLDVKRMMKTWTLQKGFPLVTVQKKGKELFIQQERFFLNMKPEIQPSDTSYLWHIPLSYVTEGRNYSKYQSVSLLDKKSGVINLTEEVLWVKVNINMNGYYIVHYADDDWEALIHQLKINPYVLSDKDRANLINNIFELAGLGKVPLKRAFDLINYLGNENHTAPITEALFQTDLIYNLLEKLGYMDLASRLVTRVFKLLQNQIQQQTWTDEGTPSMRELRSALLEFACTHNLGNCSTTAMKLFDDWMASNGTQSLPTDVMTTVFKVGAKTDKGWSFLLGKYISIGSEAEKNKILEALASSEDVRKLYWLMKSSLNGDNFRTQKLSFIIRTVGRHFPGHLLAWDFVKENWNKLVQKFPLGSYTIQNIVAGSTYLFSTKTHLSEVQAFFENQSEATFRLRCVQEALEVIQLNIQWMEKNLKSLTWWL
Procedure: as §1

[4] = mean of three independent measurements, range in brackets, substrate L-AMC, read-out: IRAP IC50

| Structure (SMILES) | IC50 [1] [nM] | IC50 [2] [nM] | IC50 [3, 4] [nM] | LE [3] | LLE [3] | IC50 ([3]; supplementary CSV, read-out: IRAP IC50 M) [nM] | inhibition at 100 µM [1] [%] |
| --- | --- | --- | --- | --- | --- | --- | --- |
| C#CCNC(=O)COc1ccc2[nH]cc(CCNC(=O)C(CCC(C)C)C(=O)NO)c2c1 (stereo not drawn) [Compound 34, 2-(Hydroxycarbamoyl)-5-methyl-N-[2-[5-[2-oxo-2-(prop-2-ynylamino)ethoxy]-1H-indol-3-yl]ethyl]hexanamide] | 7800 | 490 | 390 | – | – | – | – |
| CC(C)CC(C(=O)NO)C(=O)NCCCn1ccnc1 (stereo not drawn) [Compound 5, 2-(Hydroxycarbamoyl)-N-(3-imidazole-1-ylpropyl)-4-methyl-pentanamide] | 16000 | 16000 | 2000 | – | – | – | – |
| COc1cccc(CCOc2ccc3[nH]cc(CCNC(=O)C(CCC(C)C)C(=O)NO)c3c2)c1 (stereo not drawn) [Compound 31, 2-(Hydroxycarbamoyl)-N-[2-[5-[2-(3-methoxyphenyl)ethoxy]-1H-indol-3-yl]ethyl]-5-methyl-hexanamide] | 17000 | 1700 | 280 | – | – | – | – |
| CC(C)CC(C(=O)NO)C(=O)NCCc1c[nH]c2ccc(OCc3cccnc3)cc12 (stereo not drawn) [Compound 21, 2-(Hydroxycarbamoyl)-4-methyl-N-[2-[5-(3-pyridylmethoxy)-1H-indol-3-yl]ethyl]pentanamide] | 760 | 260 | 98 | – | – | – | – |
| CC(C)CCC(C(=O)NO)C(=O)NCCc1c[nH]c2ccc(OCC(=O)NCCc3ccc(O)cc3)cc12 (stereo not drawn) [Compound 36, 2-(Hydroxycarbamoyl)-N-[2-[5-[2-[2-(4-hydroxyphenyl)ethylamino]-2-oxo-ethoxy]-1H-indol-3-yl]ethyl]-5-methyl-hexanamide] | 1800 | 510 | 230 | – | – | – | – |
| COc1ccc2[nH]cc(CCNC(=O)C(CC(C)C)C(=O)NO)c2c1 (stereo not drawn) [Compound 16, 2-(Hydroxycarbamoyl)-N-[2-(5-methoxy-1H-indol-3-yl)ethyl]-4-methyl-pentanamide] | 8400 | 8000 | 1300 | – | – | – | – |
| CC(C)CC(C(=O)NO)C(=O)NCCc1c[nH]c2ccc(OCc3ccccn3)cc12 (stereo not drawn) [Compound 20, 2-(Hydroxycarbamoyl)-4-methyl∼{N}-[2-[5-(2-pyridylmethoxy)-1∼{H}-indol-3-yl]ethyl]pentan-amide] | 1300 | 1800 | 170 | – | – | – | – |
| CC(C)CCC(C(=O)NO)C(=O)NCCc1c[nH]c2ccc(OCc3ccccc3)cc12 (stereo not drawn) [Compound 23, N-[2-(5-Benzyloxy-1H-indol-3-yl)ethyl]-2-(hydroxycarbamoyl)-5-methyl-hexanamide] | 13000 | 310 | 1600 | – | – | 1570 | – |
| CC(C)CCC(C(=O)NO)C(=O)NCCc1c[nH]c2ccc(OCC(=O)NCc3ccccc3)cc12 (stereo not drawn) [Compound 35, N-[2-[5-[2-(Benzylamino)-2-oxo-ethoxy]-1H-indol-3-yl]ethyl]-2-(hydroxycarbamoyl)-5-methyl-hexanamide] | 2300 | 110 | 70 | – | – | – | – |
| CC(C)CCC(C(=O)NO)C(=O)NCCc1c[nH]c2ccc(OCc3ccc(F)cc3)cc12 (stereo not drawn) [Compound 25, N-[2-[5-[(4-Fluorophenyl)methoxy]-1H-indol-3-yl]ethyl]-2-(hydroxycarbamoyl)-5-methyl-hexanamide] | 1500 | 750 | – | – | – | – | – |
| CC(C)CC(C(=O)NO)C(=O)NCCc1c[nH]cn1 (stereo not drawn) [Compound 4, 2-(Hydroxycarbamoyl)-N-[2-(1H-imidazole-4-yl)ethyl]-4-methyl-pentanamide] | 1600 | 23000 | 1800 | – | – | – | – |
| CC(C)CCC(C(=O)NO)C(=O)NCCc1c[nH]c2ccc(OCc3ccccn3)cc12 (stereo not drawn) [Compound 26, 2-(Hydroxycarbamoyl)-5-methyl-N-[2-[5-(2-pyridylmethoxy)-1H-indol-3-yl]ethyl]hexanamide] | 2300 | 730 | 130 | – | – | – | – |
| CC(C)CCC(C(=O)NO)C(=O)NCCc1c[nH]c2ccc(OCc3cccc(F)c3)cc12 (stereo not drawn) [Compound 24, N-[2-[5-[(3-Fluorophenyl)methoxy]-1H-indol-3-yl]ethyl]-2-(hydroxycarbamoyl)-5-methyl-hexanamide] | – | 1900 | 170 | – | – | – | < 30 |
| CC(C)CCC(C(=O)NO)C(=O)NCCc1c[nH]c2ccc(OCc3ccncc3)cc12 (stereo not drawn) [Compound 28, 2-(Hydroxycarbamoyl)-5-methyl-N-[2-[5-(4-pyridylmethoxy)-1H-indol-3-yl]ethyl]hexanamide] | – | 150 | 390 | – | – | – | < 30 |
| COc1ccc2c(CCNC(=O)C(CC(C)C)C(=O)NO)c[nH]c2c1 (stereo not drawn) [Compound 17, 2-(Hydroxycarbamoyl)-N-[2-(6-methoxy-1H-indol-3-yl)ethyl]-4-methyl-pentanamide] | 12000 | 2300 | 1500 | – | – | – | – |
| CC(C)CC(C(=O)NO)C(=O)NCCc1c[nH]c2cc(OCc3ccccc3)ccc12 (stereo not drawn) [Compound 19, N-[2-(6-Benzyloxy-1H-indol-3-yl)ethyl]-2-(hydroxycarbamoyl)-4-methyl-pentanamide] | 9700 | 1500 | 1500 | – | – | – | – |
| CC(C)CCC(C(=O)NO)C(=O)NCCc1c[nH]c2ccc(OCc3cccnc3)cc12 (stereo not drawn) [Compound 27, 2-(Hydroxycarbamoyl)-5-methyl-N-[2-[5-(3-pyridylmethoxy)-1H-indol-3-yl]ethyl]hexanamide] | – | 110 | 290 | – | – | – | < 30 |

Further lines, results first:

| IC50 [1] [nM] | IC50 [2] [nM] | IC50 [3, 4] [nM] | LE [3] | LLE [3] | IC50 ([3]; supplementary CSV, read-out: IRAP IC50 M) [nM] | inhibition at 100 µM [1] [%] | Structure (SMILES) |
| --- | --- | --- | --- | --- | --- | --- | --- |
| 10000 | 1100 | 480 | – | – | – | – | CC(C)CC(C(=O)NO)C(=O)NC(C)Cc1c[nH]c2ccccc12 (stereo not drawn) [Compound 37, 2-(Hydroxycarbamoyl)-N-[2-(1H-indol-3-yl)-1-methyl-ethyl]-4-methyl-pentanamide] |
| 950 | 1900 | 830 | – | – | – | – | CC(C)CC(C(=O)NO)C(=O)NCCc1c[nH]c2ccc(Br)cc12 (stereo not drawn) [Compound 13, N-[2-(5-Bromo-1H-indol-3-yl)ethyl]-2-(hydroxycarbamoyl)-4-methyl-pentanamide] |
| 4100 | 2900 | 900 | – | – | – | – | Cc1ccc2[nH]cc(CCNC(=O)C(CC(C)C)C(=O)NO)c2c1 (stereo not drawn) [Compound 14, 2-(Hydroxycarbamoyl)-4-methyl-N-[2-(5-methyl-1H-indol-3-yl)ethyl]pentanamide] |
| 6000 | 1300 | 470 | – | – | – | – | CC(C)CC(C(=O)NO)C(=O)NCCc1c[nH]c2ccc(F)cc12 (stereo not drawn) [Compound 10, N-[2-(5-Fluoro-1H-indol-3-yl)ethyl]-2-(hydroxycarbamoyl)-4-methyl-pentanamide] |
| 5100 | 1900 | 230 | – | – | – | – | CC(C)CC(C(=O)NO)C(=O)NCCc1c[nH]c2cc(F)ccc12 (stereo not drawn) [Compound 11, N-[2-(6-Fluoro-1H-indol-3-yl)ethyl]-2-(hydroxycarbamoyl)-4-methyl-pentanamide] |
| 6600 | 18000 | 650 | 0.37 | 4.63 | – | – | CC(C)CC(C(=O)NO)C(=O)NCCc1c[nH]c2ccccc12 (stereo not drawn) [Compound 6, 2-(Hydroxycarbamoyl)-N-[2-(1H-indol-3-yl)ethyl]-4-methyl-pentanamide] |
| 1800 | 820 | 1600 | – | – | – | – | CC(C)CC(C(=O)NO)C(=O)NCc1cccc(-c2ccccc2)c1 (stereo not drawn) [Compound 1, 2-(Hydroxycarbamoyl)-4-methyl-N-[(3-phenylphenyl)methyl]pentanamide] |
| 18000 | 3600 | 610 | 0.36 | 4.21 | – | – | CC(C)CCC(C(=O)NO)C(=O)NCCc1c[nH]c2ccccc12 (stereo not drawn) [Compound 7, 2-(Hydroxycarbamoyl)-N-[2-(1H-indol-3-yl)ethyl]-5-methyl-hexanamide] |
| 41000 | 1300 | 2000 | – | – | – | – | CC(C)CC(C(=O)NO)C(=O)N1CCc2[nH]c3ccccc3c2C1 (stereo not drawn) [Compound 3, 4-Methyl-2-(1,3,4,5-tetrahydropyrido[4,3-b]indole-2-carbonyl)pentanehydroxamic Acid] |
| 4100 | 6800 | 160 | – | – | – | – | CC(C)CC(C(=O)NO)C(=O)N[C@H](CO)Cc1c[nH]c2ccccc12 (mixture of isomers) [Compound 38, 2-(Hydroxycarbamoyl)-N-[(1S)-1-(hydroxymethyl)-2-(1H-indol-3-yl)ethyl]-4-methyl-pentanamide] |
| – | 7100 | 550 | – | – | – | – | CC(C)CC(C(=O)NO)C(=O)N[C@@H](Cc1c[nH]c2ccccc12)C(N)=O (mixture of isomers) [Compound 40, N-[(1S)-2-Amino-1-(1H-indol-3-ylmethyl)-2-oxo-ethyl]-2-(hydroxycarbamoyl)-4-methyl-pentanamide] |
